According to ChEMBL document CHEMBL1128259, “Ketomethylene and (cyanomethylene)amino pseudopeptide analogues of the C-terminal hexapeptide of neurotensin” (J Med Chem, 1995):
Peptide text beside a SMILES is read from it. * marks the point of attachment. X2 = CC[C@@H](C)[C@H](CN[C@@H](Cc1ccccc1)C(=O)O)N*

Experiments:
[1] = biological target: T1, Neurotensin receptor type 1 (Rattus norvegicus, UniProt P20789); assay: IC50 was measured as binding to rat cortex membranes using [3H]- NT(neurotensin) as tracer
T1 sequence (P20789 whole entry): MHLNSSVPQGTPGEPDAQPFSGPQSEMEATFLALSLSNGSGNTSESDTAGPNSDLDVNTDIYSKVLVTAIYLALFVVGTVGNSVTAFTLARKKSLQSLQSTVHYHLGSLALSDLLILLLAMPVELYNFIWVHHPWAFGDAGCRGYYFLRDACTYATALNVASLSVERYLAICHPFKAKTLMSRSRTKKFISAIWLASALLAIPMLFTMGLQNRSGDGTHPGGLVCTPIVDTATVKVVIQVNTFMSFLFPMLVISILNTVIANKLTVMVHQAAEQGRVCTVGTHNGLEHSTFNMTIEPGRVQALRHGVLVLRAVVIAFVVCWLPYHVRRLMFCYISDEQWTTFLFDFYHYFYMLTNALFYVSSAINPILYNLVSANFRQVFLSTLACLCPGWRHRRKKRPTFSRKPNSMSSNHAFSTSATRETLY

[2] = biological target: T1, Neurotensin receptor type 1; assay: IC50 was measured as binding to rat cortex membranes using [3H]- NT (neurotensin) as tracer
[3] = biological target: Neurotensin receptor type 1 (Rattus norvegicus) (UniProt P20789); assay: Relative potency at neurotensin receptor compared to neurotensin (NT8-13)
Neurotensin receptor type 1 (Rattus norvegicus), sequence (P20789 whole entry): as above

Row | IC50 [1] | IC50 [2] | Relative potency [3] | Structure (SMILES)
1 | 6310 nM | – | – | CC[C@H](C)[C@H](NC[C@H](Cc1ccc(O)cc1)NC(=O)[C@@H]1CCCN1C(=O)[C@H](CCCN=C(N)N)NC(=O)[C@@H](N)CCCN=C(N)N)C(=O)N[C@@H](CC(C)C)C(=O)O
2 | 5 nM | – | – | CC[C@H](C)[C@H](NC(=O)[C@H](Cc1ccc(O)cc1)NC(=O)[C@@H]1CCCN1C(=O)[C@H](CCCNC(=N)N)NC(=O)[C@@H](N)CCCNC(=N)N)C(=O)N[C@@H](Cc1ccccc1)C(=O)O
3 | 8 nM | – | – | CC(C)C[C@H](NC(=O)[C@H](Cc1ccccc1)NC(=O)[C@H](Cc1ccc(O)cc1)NC(=O)[C@@H]1CCCN1C(=O)[C@H](CCCN=C(N)N)NC(=O)[C@@H](N)CCCN=C(N)N)C(=O)O
4 | – | 180 nM | 5.5 | CC[C@H](C)[C@H](NC(C#N)[C@@H](Cc1ccc(O)cc1)NC(=O)[C@@H]1CCCN1C(=O)[C@H](CCCN=C(N)N)NC(=O)[C@@H](N)CCCN=C(N)N)C(=O)N[C@@H](CC(C)C)C(=O)O (some centres undefined)
5 | 1200 nM | – | 0.8 | CC(C)C[C@H](NC(=O)[C@H](CC(=O)[C@H](Cc1ccc(O)cc1)NC(=O)[C@@H]1CCCN1C(=O)[C@H](CCCNC(=N)N)NC(=O)[C@@H](N)CCCNC(=N)N)Cc1ccccc1)C(=O)O
6 | – | 10000 nM | 0.1 | CC[C@H](C)[C@H](NC(C#N)[C@H](Cc1ccc(O)cc1)NC(=O)C1CCCN1C(=O)[C@H](CCCN=C(N)N)NC(=O)[C@@H](N)CCCN=C(N)N)C(=O)N[C@@H](CC(C)C)C(=O)O (some centres undefined)
7 | – | – | 105 | CC(C)C[C@H](NC(=O)[C@@H](Cc1ccccc1)NC(=O)[C@H](Cc1ccc(O)cc1)NC(=O)[C@@H]1CCCN1C(=O)[C@H](CCCN=C(N)N)NC(=O)[C@@H](N)CCCN=C(N)N)C(=O)O
8 | – | – | 200 | CC[C@@H](C)[C@@H](NC(=O)[C@H](Cc1ccc(O)cc1)NC(=O)[C@@H]1CCCN1C(=O)[C@H](CCCN=C(N)N)NC(=O)[C@@H](N)CCCN=C(N)N)C(=O)N[C@@H](Cc1ccccc1)C(=O)O
9 | – | – | 0.1 | CC[C@@H](C)[C@@H](NC[C@H](Cc1ccc(O)cc1)NC(=O)[C@@H]1CCCN1C(=O)[C@H](CCCN=C(N)N)NC(=O)[C@@H](N)CCCN=C(N)N)C(=O)N[C@@H](CC(C)C)C(=O)O
10 | 8000 nM | – | – | CC[C@@H](C)[C@H](CN[C@@H](Cc1ccccc1)C(=O)O)NC(=O)[C@H](Cc1ccc(O)cc1)NC(=O)[C@@H]1CCCN1C(=O)[C@H](CCCNC(=N)N)NC(=O)[C@@H](N)CCCNC(=N)N (H-RRPY-X2)
11 | – | – | 0.1 | CC[C@@H](C)[C@H](CN[C@@H](Cc1ccccc1)C(=O)O)NC(=O)[C@H](Cc1ccc(O)cc1)NC(=O)[C@@H]1CCCN1C(=O)[C@H](CCCN=C(N)N)NC(=O)[C@@H](N)CCCN=C(N)N (H-RRPY-X2)
12 | 900 nM | – | – | CC[C@H](C)[C@H](NC(=O)[C@H](Cc1ccc(O)cc1)NC(=O)[C@@H]1CCCN1C(=O)[C@H](CCCN=C(N)N)NC(=O)[C@@H](N)CCCN=C(N)N)C(=O)C[C@H](Cc1ccccc1)C(=O)O (mixture of isomers) [listing 1 of 2 here]
13 | – | – | 1.1 | CC[C@H](C)[C@H](NC(=O)[C@H](Cc1ccc(O)cc1)NC(=O)[C@@H]1CCCN1C(=O)[C@H](CCCN=C(N)N)NC(=O)[C@@H](N)CCCN=C(N)N)C(=O)C[C@H](Cc1ccccc1)C(=O)O (mixture of isomers) [listing 2 of 2 here]
14 | 15 nM | – | 66.6 | CC(C)C[C@H](NC(=O)C(CC(=O)[C@H](Cc1ccc(O)cc1)NC(=O)[C@@H]1CCCN1C(=O)[C@H](CCCNC(=N)N)NC(=O)[C@@H](N)CCCNC(=N)N)Cc1ccccc1)C(=O)O (single isomer, unassigned)
15 | 120 nM | – | – | CC[C@H](C)[C@H](NC(=O)[C@H](Cc1ccc(O)cc1)NC(=O)[C@@H]1CCCN1C(=O)[C@H](CCCN=C(N)N)NC(=O)[C@@H](N)CCCN=C(N)N)C(=O)C[C@H](Cc1ccccc1)C(=O)O (stereo in doubt; 13a) [listing 1 of 2 here]
16 | – | – | 8.3 | CC[C@H](C)[C@H](NC(=O)[C@H](Cc1ccc(O)cc1)NC(=O)[C@@H]1CCCN1C(=O)[C@H](CCCN=C(N)N)NC(=O)[C@@H](N)CCCN=C(N)N)C(=O)C[C@H](Cc1ccccc1)C(=O)O (stereo in doubt; 13a) [listing 2 of 2 here]
17 | 1200 nM | – | – | CC[C@H](C)[C@H](NC(=O)[C@H](Cc1ccc(O)cc1)NC(=O)[C@@H]1CCCN1C(=O)[C@H](CCCN=C(N)N)NC(=O)[C@@H](N)CCCN=C(N)N)C(=O)C[C@H](Cc1ccccc1)C(=O)O (stereo in doubt; 13b) [listing 1 of 2 here]
18 | – | – | 0.8 | CC[C@H](C)[C@H](NC(=O)[C@H](Cc1ccc(O)cc1)NC(=O)[C@@H]1CCCN1C(=O)[C@H](CCCN=C(N)N)NC(=O)[C@@H](N)CCCN=C(N)N)C(=O)C[C@H](Cc1ccccc1)C(=O)O (stereo in doubt; 13b) [listing 2 of 2 here]
19 | 1500 nM | – | – | CC[C@H](C)[C@H](NC(=O)[C@H](Cc1ccc(O)cc1)NC(=O)[C@@H]1CCCN1C(=O)[C@H](CCCN=C(N)N)NC(=O)[C@@H](N)CCCN=C(N)N)C(=O)C[C@H](Cc1ccccc1)C(=O)O (stereo in doubt; 13c) [listing 1 of 2 here]
20 | – | – | 0.6 | CC[C@H](C)[C@H](NC(=O)[C@H](Cc1ccc(O)cc1)NC(=O)[C@@H]1CCCN1C(=O)[C@H](CCCN=C(N)N)NC(=O)[C@@H](N)CCCN=C(N)N)C(=O)C[C@H](Cc1ccccc1)C(=O)O (stereo in doubt; 13c) [listing 2 of 2 here]
